From publication PMC5908784, “Extracellular loops 2 and 3 of the calcitonin receptor selectively modify agonist binding and efficacy” (Biochemical Pharmacology, 2018)
Residue numbers refer to the chain shown, from its start. Where two headings read alike, the source gives them in different places. Where a SMILES comes first, the peptide text is derived from it. Bridges are numbered along the chain shown (N, C = ends).

Tests used:
Test in all cases: cAMP accumulation
Type in all cases: cell-based
[1] = target: T1, hCTR R362A (Homo sapiens, UniProt P30988, R362A); settings: for Emax: read-out: Emax (% WT), SEM; for EC50: cAMP, CV1-FlpIn cells, 30 min, IBMX
T1 construct: expressed in transfected cells
T1 sequence (P30988 25-474 R362A): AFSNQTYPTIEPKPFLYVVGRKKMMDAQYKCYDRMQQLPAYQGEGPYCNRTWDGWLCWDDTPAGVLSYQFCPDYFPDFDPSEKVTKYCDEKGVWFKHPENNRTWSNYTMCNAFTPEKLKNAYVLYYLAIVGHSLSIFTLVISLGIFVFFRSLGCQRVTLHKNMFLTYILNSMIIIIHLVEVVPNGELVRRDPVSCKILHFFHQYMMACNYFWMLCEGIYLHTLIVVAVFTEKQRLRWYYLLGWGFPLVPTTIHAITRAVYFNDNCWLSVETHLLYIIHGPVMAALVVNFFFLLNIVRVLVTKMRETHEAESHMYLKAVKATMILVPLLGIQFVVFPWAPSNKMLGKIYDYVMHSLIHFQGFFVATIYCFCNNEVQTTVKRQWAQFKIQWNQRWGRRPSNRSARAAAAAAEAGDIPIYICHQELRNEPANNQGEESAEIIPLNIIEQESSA
Summary of the method: (§1)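 Cells expressing the receptor mutant were seeded overnight, then stimulated with increasing ligand concentrations for 30 min in the presence of IBMX. After ethanol extraction and drying at room temperature, cAMP was measured and normalized to the 100 μM forskolin response. EC50 and Emax came from 3-parameter logistic fits.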

[2] = target: T2, hCTR V357A (Homo sapiens, UniProt P30988, V357A); settings: mean ± S.E.M.; for Emax: cAMP maximal response, SEM; for EC50: cAMP, CV1-FlpIn cells, 30 min, IBMX
T2 construct: c-Myc (N); expressed in transfected cells
T2 sequence (P30988 25-474 V357A): T1 sequence (P30988 25-474 R362A) with V333A, A338R
Summary of the method: as §1

[3] = target: T3, hCTR D287A (Homo sapiens, UniProt P30988, D287A); settings: mean ± S.E.M.; for Emax: cAMP maximal response, SEM
T3 construct: c-Myc (N); expressed in transfected cells
T3 sequence (P30988 25-474 D287A): T1 sequence (P30988 25-474 R362A) with D263A, A338R
Summary of the method: as §1

[4] = target: T4, hCTR V358A (Homo sapiens, UniProt P30988, V358A); settings: mean ± S.E.M.; for Emax: cAMP maximal response, SEM; for EC50: cAMP, CV1-FlpIn cells, 30 min, IBMX
T4 construct: c-Myc (N); expressed in transfected cells
T4 sequence (P30988 25-474 V358A): T1 sequence (P30988 25-474 R362A) with V334A, A338R
Summary of the method: as §1

[5] = target: T5, hCTR N288A (Homo sapiens, UniProt P30988, N288A); settings: mean ± S.E.M.; for Emax: cAMP maximal response, SEM; for EC50: cAMP, CV1-FlpIn cells, 30 min, IBMX
T5 construct: expressed in transfected cells
T5 sequence (P30988 25-474 N288A): T1 sequence (P30988 25-474 R362A) with N264A, A338R
Summary of the method: as §1

[6] = R362A, cAMP maximal response, mean ± S.E.M.

Emax [1, 6] [%] | EC50 ([1]; R362A, mean ± S.E.M.) [nM] | EC50 [2] [nM] | EC50 [4] [nM] | EC50 [5] [nM] | EC50 ([3]; cAMP, CV1-FlpIn cells, 30 min, IBMX) [nM] | Compound | Emax [1] [%] | Emax [2] [%] | Emax [3] [%] | Emax [4] [%] | Emax [5] [%]
 |  |  |  |  |  | CC[C@H](C)[C@H](NC(=O)[C@H](C)NC(=O)[C@@H](NC(=O)[C@H](CCC(N)=O)NC(=O)[C@@H]1CCCN1C(=O)[C@H](Cc1ccccc1)NC(=O)[C@@H](NC(=O)[C@H](Cc1c[nH]cn1)NC(=O)[C@H](Cc1ccccc1)NC(=O)[C@H](CCCCN)NC(=O)[C@H](CC(N)=O)NC(=O)[C@H](Cc1ccccc1)NC(=O)[C@H](CC(=O)O)NC(=O)[C@H](CCC(N)=O)NC(=O)[C@@H](NC(=O)[C@H](Cc1ccc(O)cc1)NC(=O)[C@@H](NC(=O)CNC(=O)[C@H](CC(C)C)NC(=O)[C@H](CCSC)NC(=O)[C@@H]1CSSC[C@H](N)C(=O)NCC(=O)N[C@@H](CC(N)=O)C(=O)N[C@@H](CC(C)C)C(=O)N[C@@H](CO)C(=O)N[C@@H]([C@@H](C)O)C(=O)N1)[C@@H](C)O)[C@@H](C)O)[C@@H](C)O)[C@@H](C)O)C(=O)NCC(=O)N[C@H](C(=O)NCC(=O)N[C@@H](C)C(=O)N1CCC[C@H]1C(N)=O)C(C)C [hCT] | 125 ± 9 | 137 ± 6 | 140 ± 18 | 98 ± 4 | 117 ± 10
51 ± 9 | 17.8 | 29.5 | 20.9 | 10.2 |  | CC(C)C[C@H](NC(=O)CNC(=O)[C@H](C)NC(=O)[C@H](CC(C)C)NC(=O)[C@H](CCCNC(=N)N)NC(=O)[C@H](Cc1cnc[nH]1)NC(=O)[C@@H](NC(=O)[C@@H](NC(=O)[C@@H]1CSSC[C@H](NC(=O)[C@H](C)N)C(=O)N[C@@H](CC(=O)O)C(=O)N[C@@H]([C@@H](C)O)C(=O)N[C@@H](C)C(=O)N[C@@H]([C@@H](C)O)C(=O)N1)C(C)C)[C@@H](C)O)C(=O)N[C@@H](CC(C)C)C(=O)N[C@@H](CO)C(=O)N[C@@H](CCCNC(=N)N)C(=O)N[C@@H](CO)C(=O)NCC(=O)NCC(=O)N[C@H](C(=O)N[C@H](C(=O)N[C@@H](CCCCN)C(=O)N[C@@H](CC(N)=O)C(=O)N[C@@H](CC(N)=O)C(=O)N[C@@H](Cc1ccccc1)C(=O)N[C@H](C(=O)N1CCC[C@H]1C(=O)N[C@H](C(=O)N[C@@H](CC(N)=O)C(=O)N[C@H](C(=O)NCC(=O)N[C@@H](CO)C(=O)N[C@@H](CCCCN)C(=O)N[C@@H](C)C(=O)N[C@@H](Cc1ccccc1)C(N)=O)C(C)C)[C@@H](C)O)C(C)C)C(C)C)C(C)C [hαCGRP] |  | 82 ± 10 |  | 74 ± 9 | 118 ± 17
138 ± 9 | 0.182 | 0.151 | 0.0316 | 0.0631 | 1.91 | CSCC[C@H](NC(=O)CNC(=O)[C@H](CO)NC(=O)[C@H](Cc1ccccc1)NC(=O)[C@H](CCCNC(=N)N)NC(=O)[C@H](Cc1c[nH]cn1)NC(=O)[C@H](Cc1ccccc1)NC(=O)[C@H](CC(N)=O)NC(=O)[C@H](CC(N)=O)NC(=O)[C@H](CC(C)C)NC(=O)[C@H](CC(N)=O)NC(=O)[C@H](CCCNC(=N)N)NC(=O)[C@H](Cc1c[nH]c2ccccc12)NC(=O)[C@H](Cc1ccc(O)cc1)NC(=O)[C@H](C)NC(=O)[C@H](CO)NC(=O)[C@H](CC(C)C)NC(=O)[C@@H](NC(=O)[C@@H]1CSSC[C@H](N)C(=O)N[C@@H](CO)C(=O)N[C@@H](CC(N)=O)C(=O)N[C@@H](CC(C)C)C(=O)N[C@@H](CO)C(=O)N[C@@H]([C@@H](C)O)C(=O)N1)C(C)C)C(=O)NCC(=O)N[C@@H](Cc1ccccc1)C(=O)NCC(=O)N1CCC[C@H]1C(=O)N[C@@H](CCC(=O)O)C(=O)N[C@H](C(=O)N1CCC[C@H]1C(N)=O)[C@@H](C)O [pCT] (H-CSNLSTCVLSAYWRNLNNFHRFSGMGFGPETP-NH2; disulfide 1-7) |  | 154 ± 17 | 74 ± 9 | 140 ± 15 | 105 ± 10
 |  |  |  |  |  | CC(C)C[C@H](NC(=O)[C@H](CC(N)=O)NC(=O)[C@H](CC(N)=O)NC(=O)[C@H](CO)NC(=O)[C@H](CO)NC(=O)[C@H](CCCNC(=N)N)NC(=O)[C@@H](NC(=O)[C@H](CC(C)C)NC(=O)[C@H](Cc1ccccc1)NC(=O)[C@H](CC(N)=O)NC(=O)[C@H](C)NC(=O)[C@H](CC(C)C)NC(=O)[C@H](CCCNC(=N)N)NC(=O)[C@H](CCC(N)=O)NC(=O)[C@@H](NC(=O)[C@H](C)NC(=O)[C@@H]1CSSC[C@H](NC(=O)[C@@H](N)CCCCN)C(=O)N[C@@H](CC(N)=O)C(=O)N[C@@H]([C@@H](C)O)C(=O)N[C@@H](C)C(=O)N[C@@H]([C@@H](C)O)C(=O)N1)[C@@H](C)O)C(C)C)C(=O)NCC(=O)N1CCC[C@H]1C(=O)N[C@H](C(=O)N[C@@H](CC(C)C)C(=O)N1CCC[C@H]1C(=O)N1CCC[C@H]1C(=O)N[C@H](C(=O)N[C@@H](CC(N)=O)C(=O)N[C@H](C(=O)NCC(=O)N[C@@H](CO)C(=O)N[C@@H](CC(N)=O)C(=O)N[C@H](C(=O)N[C@@H](Cc1ccc(O)cc1)C(N)=O)[C@@H](C)O)C(C)C)[C@@H](C)O)C(C)C [rAmy] | 88 ± 12 | 88 ± 10 |  | 94 ± 13 | 64 ± 8
 |  |  |  |  |  | CC(C)C[C@H](NC(=O)[C@H](CCCCN)NC(=O)CNC(=O)[C@H](CC(C)C)NC(=O)[C@@H](NC(=O)[C@@H]1CSSC[C@H](N)C(=O)N[C@@H](CO)C(=O)N[C@@H](CC(N)=O)C(=O)N[C@@H](CC(C)C)C(=O)N[C@@H](CO)C(=O)N[C@@H]([C@@H](C)O)C(=O)N1)C(C)C)C(=O)N[C@@H](CO)C(=O)N[C@@H](CCC(N)=O)C(=O)N[C@@H](CCC(=O)O)C(=O)N[C@@H](CC(C)C)C(=O)N[C@@H](Cc1c[nH]cn1)C(=O)N[C@@H](CCCCN)C(=O)N[C@@H](CC(C)C)C(=O)N[C@@H](CCC(N)=O)C(=O)N[C@H](C(=O)N[C@@H](Cc1ccc(O)cc1)C(=O)N1CCC[C@H]1C(=O)N[C@@H](CCCNC(=N)N)C(=O)N[C@H](C(=O)N[C@@H](CC(N)=O)C(=O)N[C@H](C(=O)NCC(=O)N[C@@H](CO)C(=O)NCC(=O)N[C@H](C(=O)N1CCC[C@H]1C(N)=O)[C@@H](C)O)[C@@H](C)O)[C@@H](C)O)[C@@H](C)O [sCT] | 95 ± 4 | 133 ± 12 | 119 ± 7 | 139 ± 9 | 69 ± 5
